Drawing on patent publication US10093630B2, “Pyrazole compounds and methods of making and using same” (ABIDE THERAPEUTICS, INC., priority 2014, dated 2018), this text covers inhibition and IC50 for seven compounds.

Holding throughout (experiment): In vitro competitive activity-based protein profiling (gel-based, FP-Rh or HT-01 probe)
Holding throughout (assay type): biochemical

For one assay, the target named is T1, ABHD6 (Mus musculus, UniProt Q8R2Y0).
T1 construct: Proteomes (mouse brain membrane fraction or cell lysates); from tissue; host or cells: mouse brain membrane fraction (or cell lysates, not specified)
T1 sequence (Q8R2Y0 1-336): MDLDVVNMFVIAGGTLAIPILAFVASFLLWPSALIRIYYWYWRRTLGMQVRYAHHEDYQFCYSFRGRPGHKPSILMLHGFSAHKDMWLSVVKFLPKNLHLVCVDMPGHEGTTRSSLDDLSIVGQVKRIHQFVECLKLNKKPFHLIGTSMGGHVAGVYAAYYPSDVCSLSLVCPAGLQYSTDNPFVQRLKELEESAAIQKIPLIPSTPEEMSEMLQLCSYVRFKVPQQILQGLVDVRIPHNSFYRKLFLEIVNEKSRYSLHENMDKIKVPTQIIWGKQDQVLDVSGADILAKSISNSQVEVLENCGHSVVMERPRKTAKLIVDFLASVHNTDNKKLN
The following applies: for inhibition at 1 µM: 1 μM inhibitor, read-out: % Inhibition at 1 μM, C = ABHD6; for IC50: mouse brain membrane fraction or cell lysates, 30 min preincubation at 37° C., read-out: Mouse (IC50 value, nM) ABHD6; for inhibition at 10 µM: 10 μM inhibitor, read-out: % Inhibition at 10 μM, C = ABHD6. In outline:
(§1)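 Mouse brain membrane or cell lysate proteomes (1.0 mg/mL) preincubated with inhibitors 30 min at 37° C, then labelled with FP-Rh or HT-01 for 30 min at 37° C. After SDS-PAGE, activity quantified from fluorescent band intensity.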

The target of a further assay is T2, PLA2G7 (Mus musculus, UniProt Q60963).
T2 construct: Proteomes (mouse brain membrane fraction or cell lysates); from tissue; host or cells: mouse brain membrane fraction (or cell lysates, not specified)
T2 sequence (Q60963 22-440): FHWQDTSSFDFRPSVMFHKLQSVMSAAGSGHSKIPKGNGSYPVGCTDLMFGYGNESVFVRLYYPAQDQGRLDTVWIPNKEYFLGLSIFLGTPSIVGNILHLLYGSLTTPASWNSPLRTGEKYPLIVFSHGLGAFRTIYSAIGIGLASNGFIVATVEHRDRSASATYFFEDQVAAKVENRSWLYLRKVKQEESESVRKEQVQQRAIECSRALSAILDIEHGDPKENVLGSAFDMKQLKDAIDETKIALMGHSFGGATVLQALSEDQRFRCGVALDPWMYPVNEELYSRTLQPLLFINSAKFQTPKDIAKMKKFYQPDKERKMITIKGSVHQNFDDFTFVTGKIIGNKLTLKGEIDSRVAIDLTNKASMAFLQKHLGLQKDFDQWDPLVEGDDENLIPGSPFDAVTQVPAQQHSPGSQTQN
The note with it: for inhibition at 1 µM: 1 μM inhibitor, read-out: % Inhibition at 1 μM, D = PLA2G7; for inhibition at 10 µM: 10 μM inhibitor, read-out: % Inhibition at 10 μM, D = PLA2G7. In outline: as §1

Another assay has as its target T3, FAAH (Mus musculus, UniProt O08914).
T3 construct: Proteomes (mouse brain membrane fraction or cell lysates); from tissue; host or cells: mouse brain membrane fraction (or cell lysates, not specified)
T3 sequence (O08914 1-579): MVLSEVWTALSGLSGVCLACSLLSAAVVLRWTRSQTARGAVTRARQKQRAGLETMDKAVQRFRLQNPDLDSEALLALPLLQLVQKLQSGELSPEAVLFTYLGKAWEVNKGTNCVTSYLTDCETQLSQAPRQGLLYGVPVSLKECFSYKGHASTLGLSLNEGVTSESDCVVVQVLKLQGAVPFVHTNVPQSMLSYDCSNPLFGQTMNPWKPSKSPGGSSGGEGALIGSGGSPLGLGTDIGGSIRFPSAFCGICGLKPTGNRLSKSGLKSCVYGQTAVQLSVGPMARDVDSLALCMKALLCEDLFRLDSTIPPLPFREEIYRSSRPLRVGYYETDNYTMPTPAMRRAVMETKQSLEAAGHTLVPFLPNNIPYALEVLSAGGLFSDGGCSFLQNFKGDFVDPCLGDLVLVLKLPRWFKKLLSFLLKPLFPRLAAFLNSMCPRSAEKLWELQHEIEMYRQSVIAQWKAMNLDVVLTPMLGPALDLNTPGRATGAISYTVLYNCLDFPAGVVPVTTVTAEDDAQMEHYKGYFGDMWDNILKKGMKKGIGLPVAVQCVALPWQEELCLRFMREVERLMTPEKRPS
The note with it: for inhibition at 1 µM: 1 μM inhibitor, read-out: % Inhibition at 1 μM, B = FAAH; for IC50: mouse brain membrane fraction or cell lysates, 30 min preincubation at 37° C., read-out: Mouse (IC50 value, nM) FAAH; for inhibition at 10 µM: 10 μM inhibitor, read-out: % Inhibition at 10 μM, B = FAAH. In outline: as §1

Another assay has as its target T4, MAGL (Mus musculus, UniProt O35678).
T4 construct: Proteomes (mouse brain membrane fraction or cell lysates); from tissue; host or cells: mouse brain membrane fraction (or cell lysates, not specified)
T4 sequence (O35678 1-303): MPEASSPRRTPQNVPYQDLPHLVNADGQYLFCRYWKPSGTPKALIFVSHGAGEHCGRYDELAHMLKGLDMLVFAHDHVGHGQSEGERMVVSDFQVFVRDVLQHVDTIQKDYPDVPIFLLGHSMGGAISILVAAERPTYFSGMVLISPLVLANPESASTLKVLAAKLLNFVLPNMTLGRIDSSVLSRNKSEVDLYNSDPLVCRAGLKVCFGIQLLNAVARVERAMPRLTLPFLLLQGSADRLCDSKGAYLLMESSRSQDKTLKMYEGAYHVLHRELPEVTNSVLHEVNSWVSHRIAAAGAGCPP
The following applies: for inhibition at 1 µM: 1 μM inhibitor; for IC50: mouse brain membrane fraction or cell lysates, 30 min preincubation at 37° C., read-out: Mouse (IC50 value, nM) MAGL; for inhibition at 10 µM: 10 μM inhibitor. In outline:
as §1

`CCN(Cc1ccccc1Cl)C(=O)n1cc(Cl)cn1` [Example 130, 4-Chloro-N-(2-chlorobenzyl)-N-ethyl-1H-pyrazole-1-carboxamide]: the inhibition at 1 µM on ABHD6, on PLA2G7, at FAAH and at MAGL was less than 25% in each case.

For the compound `CCN(Cc1ccc(Cl)cc1)C(=O)n1cc(Cl)cn1` [Example 131, 4-chloro-N-(4-chlorobenzyl)-N-ethyl-1H-pyrazole-1-carboxamide], the inhibition (as a rule, the share of the control response that was lost under treatment) at 1 µM at ABHD6 is less than 25%; on PLA2G7, less than 25%; at FAAH, greater than 75%; at MAGL it was less than 25%. For the same compound, the IC50 (commonly the concentration needed to halve the response being measured) is greater than 1000 nM on ABHD6, less than 100 nM on FAAH and greater than 1000 nM at MAGL.

As to `CCN(Cc1ccccc1C)C(=O)n1cc(Cl)cn1` [Example 132, 4-Chloro-N-(2-methylbenzyl)-N-ethyl-1H-pyrazole-1-carboxamide], the inhibition at 1 µM on ABHD6, on PLA2G7, on FAAH and on MAGL was less than 25% each time.

With `CCN(Cc1ccc(C)cc1)C(=O)n1cc(Cl)cn1` [Example 133, 4-Chloro-N-ethyl-N-(4-methylbenzyl)-1H-pyrazole-1-carboxamide], the inhibition at 1 µM is less than 25% on ABHD6, less than 25% at PLA2G7, greater than 75% on FAAH and less than 25% on MAGL. For the same compound, the inhibition at 10 µM on ABHD6 was greater than 75%; on PLA2G7, less than 25%; on FAAH, greater than 75%; on MAGL, greater than 75%. In addition, the figures for the IC50 at ABHD6, on FAAH and at MAGL were greater than 1000 nM, less than 100 nM and greater than 1000 nM, respectively.

As to `CCN(Cc1cccc(Cl)c1)C(=O)n1cc(Cl)cn1` [Example 134, 4-Chloro-N-(3-chlorobenzyl)-N-ethyl-1H-pyrazole-1-carboxamide], the inhibition at 1 µM was less than 25% at ABHD6, less than 25% at PLA2G7, greater than 75% at FAAH and 25 to 75% at MAGL. Also, the inhibition at 10 µM at ABHD6 is greater than 75%; at PLA2G7, less than 25%; at FAAH, greater than 75%; on MAGL, greater than 75%. Besides, the figures for the IC50 at ABHD6, at FAAH and on MAGL were greater than 1000 nM, 100 to 1000 nM and greater than 1000 nM, respectively.

Consider `CCN(Cc1cccc(C)c1)C(=O)n1cc(Cl)cn1` [Example 135, 4-Chloro-N-ethyl-N-(3-methylbenzyl)-1H-pyrazole-1-carboxamide], for which the inhibition at 1 µM on ABHD6 is less than 25%; on PLA2G7, less than 25%; on FAAH, greater than 75%; on MAGL, 25 to 75%. For the same compound, the inhibition at 10 µM at ABHD6 is greater than 75%; on PLA2G7, less than 25%; on FAAH, greater than 75%; on MAGL, greater than 75%. Besides, the IC50 at ABHD6 was greater than 1000 nM; at FAAH it was 100 to 1000 nM; at MAGL, greater than 1000 nM.

As for `O=C(N1CCCCC1)n1cc(-c2ccccc2)cn1` [Example 136, (4-Phenyl-1H-pyrazol-1-yl)(piperidin-1-yl)methanone], the inhibition at 1 µM on ABHD6 is greater than 75%; on PLA2G7 it was greater than 75%; on FAAH, greater than 75%; on MAGL it was less than 25%. Also, the inhibition at 10 µM is greater than 75% at ABHD6, greater than 75% at PLA2G7, greater than 75% at FAAH and less than 25% on MAGL.
